Assay results as given in patent publication US20250064886A1, “CARDIOVASCULAR AND CEREBROVASCULAR DRUG AND USE THEREOF” (HANGZHOU ADAMERCK PHARMLABS INC., priority 2021, published 2025).
Several values for one entry are separate records, joined by “and”; a condition that tells them apart may be missing. Equal entries are not always repeated.

Experiments:
[1] = test system: vascular endothelial injury induced thrombosis model in zebrafish; assay: Preventative effect on vascular endothelial injury induced thrombosis, ponatinib zebrafish model (Example 1); type: in vivo; details: 4.00 ng/tail injected
tryptase = assay: Sensitization risk: tryptase expression (OD, BAPNA) in zebrafish (Example 2); type: in vivo
Procedure: Experimental method: 2 dpf wild type AB strain zebrafish were randomly selected and placed in a 24-well plate, with each group 6 parallel wells and 10 zebrafish per well. The zebrafish were injected intravenously with samples at a dose of 500 ng/tail and the positive control “C48/80” at a concentration of 1.5 μg/mL, while normal control group was set up. Each well has a capacity of 1 mL.
All experimental groups were given BAPNA by dissolving it in the water. After treatment at 28° C. for 1 day, the liquid was transferred to 96-well plates with 200 μL/well, and the relative absorbance values (OD values) of the expression levels of tryptase in each experimental group were detected using an microplate reader, and the results of the statistical analysis of the OD values were used to evaluate the risk of sensitization by sample. Statistical results were expressed as mean±SE.
Statistical analysis was performed using SPSS software, and p<0.05 indicates significant differences.

[2] = test system: rats with focal cerebral ischemia (MCAO)/reperfusion; assay: Preventative administration, cerebral ischemia-reperfusion injury MCAO/R in rats (Example 5); type: in vivo, rat; details: preventative; for Cerebral infarction rate (%): tail vein 3 days
Procedure: Experimental method: SD rats were randomly divided into six groups, i.e., pseudosurgery group, model control group, positive control drug ozagre (6 mg/kg) group, and administration drug compound (1) high-dose (67.5 mg/kg) group, medium-dose (22.5 mg/kg) group, and low-dose (7.5 mg/kg) group. The administration group was pre-administered via tail vein injection, while the pseudosurgery group and model control group were given equal volumes of physiological saline once a day for 3 consecutive days. 10 minutes after the last administration, a rat MCAO/R model was established and performed reperfusion 2 hours post ischemia. 24 hours after MCAO reperfusion, the neurobehavioral scores of rats were performed to determine their neurological function; the cerebral infarction rate and cerebral water content in rats were determined using 2,3,5-triphenyltetrazolium chloride (TTC) staining method.

[3] = test system: Erastin-induced neuronal cells; assay: Cell viability (CCK8) of Erastin-induced neuronal cells (Example 8); type: cell-based, rat; details: Erastin 50 μM
Procedure: (§1) Experimental method: Primary neuron cells were incubated in a medium containing Erastin (final concentration of 50 μM) for 24 hours, and then incubated in a medium containing different concentrations of the test drug and Erastin (final concentration of 50 μM) for another 24 hours. After incubation, Real time PCR was used to detect mRNA expression of GPX4 in each group of cells, CCK8 assay was used to detect cell viability in each group of cells, C11-BODIPY probe method was used to detect intracellular lipid ROS levels in each group of cells, and PGSK probe method was used to detect iron content in cells.
(§2) The experimental data were expressed in means±SD, and statistical differences between groups were determined using one-way ANOVA and Tukey's test, with p-values less than 0.05 considered significant.
After incubation, the CCK8 experiment was used to detect the cell viability of each group of cells. The results were presented as Mean±SD. Compared with control group, ***p<0.0001. Compared with model control group, ^#P<0.05, ^##P<0.01.

[4] = test system: iron content in Erastin-induced neuronal cells; assay: Iron content (PGSK probe) in Erastin-induced neuronal cells (Example 8); type: cell-based, rat; details: Erastin 50 μM
Procedure: as §1, §2
After incubation, the PGSK probe method was used to detect the intracellular iron content. The results were presented as Mean±SD. Compared with the control group, ***p<0.0001; Compared with the model group, #p<0.05, ##p<0.01.

GPX4 mRNA = GPX4 mRNA expression (real time PCR) in Erastin-induced neuronal cells (Example 8); type: cell-based, rat; details: Erastin 50 μM
Procedure: as §1, §2
After incubation, real time PCR was used to detect the mRNA expression of GPX4 in each group of cells. The results were presented as Mean±SD. Compared with the control group, ***p<0.0001; Compared with the model group, #p<0.05, […].

## CC(=O)N[C@H](CSCC1OC2OC3C(CSC[C@@H](NC(C)=O)C(=O)[O-])OC(OC4C(CSC[C@@H](NC(C)=O)C(=O)[O-])OC(OC5C(CSC[C@@H](NC(C)=O)C(=O)[O-])OC(OC6C(CSC[C@@H](NC(C)=O)C(=O)[O-])OC(OC7C(CSC[C@@H](NC(C)=O)C(=O)[O-])OC(OC8C(CSC[C@@H](NC(C)=O)C(=O)[O-])OC(OC9C(CSC[C@@H](NC(C)=O)C(=O)[O-])OC(OC1C(O)C2O)C(O)C9O)C(O)C8O)C(O)C7O)C(O)C6O)C(O)C5O)C(O)C4O)C(O)C3O)C(=O)[O-].[Na+].[Na+].[Na+].[Na+].[Na+].[Na+].[Na+].[Na+] (some centres unmarked) [Compound (1)]
[1]
  Preventative effect on thrombosis (%): 66%
[1]; n = 10
  Cardiac erythrocyte staining intensity (pixels, mean ± SE): 4397 ± 454 pixels
[1]; n = 10, listed as compound (1)
  Cardiac erythrocyte staining intensity (pixels, mean ± SE): 4397 pixels
tryptase; 500 ng/tail
  Sensitization risk, in words: no or substantially no sensitization risk
tryptase; 500 ng/tail intravenous
  Relative sensitization risk (compared with positive control group): 13%
  Sensitization risk (%): 11.1%
tryptase; 500 ng/tail intravenous, 28° C. 1 day, single wells
  Absorbance value (OD value), parallel wells 1-6: 0.05725 and 0.05895 and 0.06195 and 0.06575 and 0.05845 and 0.05605
tryptase; 500 ng/tail intravenous, mean of 6 wells
  Absorbance value (OD value), mean: 0.060
[2]; 7.5 mg/kg (low-dose)
  Cerebral infarction rate (%): 15.18 ± 4.74 %
[2]; 7.5 mg/kg
  Behavioral score: 2.00 ± 1.07
  Cerebral water content (%): 80.16 ± 1.03%
[2]; 22.5 mg/kg (medium-dose)
  Cerebral infarction rate (%): 13.93 ± 6.99 %
[2]; 22.5 mg/kg
  Behavioral score: 1.87 ± 0.64
  Cerebral water content (%): 79.01 ± 1.27 %
[2]; 67.5 mg/kg (high-dose)
  Cerebral infarction rate (%): 12.28 ± 10.29 %
[2]; 67.5 mg/kg
  Behavioral score: 1.50 ± 0.53
  Cerebral water content (%): 78.23 ± 1.84 %
[3]; 1 μM, 24 h, control = 100, Mean±SD
  Cell viability (%): 57.01 ± 2.82^ %
[3]; 2.5 μM
  Cell viability (%): 61.77 ± 6.56^ %
[3]; 5 μM
  Cell viability (%): 65.4 ± 5.81%
[3]; 10 μM
  Cell viability (%): 76.62 ± 5.99^## %
[3]; 20 μM
  Cell viability (%): 80.62 ± 5.39^## %
[3]; 40 μM
  Cell viability (%): 83.43 ± 6.21^## %
[4]; 1 μM, control = 100, PGSK fluorescence, weaker = more iron
  Iron content (PGSK probe): 61.06 ± 7.12
[4]; 2.5 μM
  Iron content (PGSK probe): 66.81 ± 7.21
[4]; 5 μM
  Iron content (PGSK probe): 71.85 ± 4.47
[4]; 10 μM
  Iron content (PGSK probe): 77.52 ± 12.88^#
[4]; 20 μM
  Iron content (PGSK probe): 82.16 ± 6.86^##
[4]; 40 μM
  Iron content (PGSK probe): 86.69 ± 8.01^##
GPX4 mRNA; 1 μM, control about 1.00, Mean±SD
  Expression of GPX4 mRNA: 0.4845 ± 0.06^
GPX4 mRNA; 2.5 μM
  Expression of GPX4 mRNA: 0.5759 ± 0.07^
GPX4 mRNA; 5 μM
  Expression of GPX4 mRNA: 0.6469 ± 0.08^#
GPX4 mRNA; 10 μM
  Expression of GPX4 mRNA: 0.7093 ± 0.15^##
GPX4 mRNA; 20 μM
  Expression of GPX4 mRNA: 0.7664 ± 0.08^##
GPX4 mRNA; 40 μM
  Expression of GPX4 mRNA: 0.8503 ± 0.06^##
